Test results from ChEMBL document CHEMBL3045865, “Synthesis and antitumor activity of new pyrido[2,3-d]pyrimidine derivatives” (2013).
Active and inactive are the calls of the source. The calls are words filed in the database; no cut-off is given here.

Legend:
[1] = Induction of bleomycin-dependent DNA damage at 0.1 mg/ml after 1 hr
[2] = Antineoplastic activity against Mus musculus (mouse) EACs transplanted in Swiss albino mouse assessed as increase in life span at 5 mg/kg, ip after 9 days (reference value: 9.1%); format: functional, Ehrlich; settings: route intraperitoneal
[3] = Antineoplastic activity against Mus musculus (mouse) EACs transplanted in Swiss albino Mus musculus (mouse) assessed as increase in hemoglobin level at 5 mg/kg, ip administered 9 days measured on day 14 (reference value: 8.7 g%); format: functional, Ehrlich; settings: route intraperitoneal
[4] = Antineoplastic activity against Mus musculus (mouse) EACs transplanted in Swiss albino Mus musculus (mouse) assessed as increase in hematocritis level at 5 mg/kg, ip administered 9 days measured on day 14 (reference value: 35.5 g%); format: functional, Ehrlich; settings: route intraperitoneal
[5] = Antineoplastic activity against Mus musculus (mouse) EACs transplanted in Swiss albino Mus musculus (mouse) assessed as decrease in WBC level at 5 mg/kg, ip administered 9 days measured on day 14 (reference value: 38.6 10^3/mm3); format: functional, Ehrlich; settings: route intraperitoneal
Ehrlich = assay: Antineoplastic activity against Mus musculus (mouse) EACs transplanted in Swiss albino mouse assessed as reduction in viable tumor cell count at 5 mg/kg, ip after 5 days by Giemsa staining; format: functional, organism-based; set-up: dose 5 mg/kg
[6] = Antineoplastic activity against Mus musculus (mouse) EACs transplanted in Swiss albino mouse assessed as increase in life span at 20 mg/kg, ip after 9 days (reference value: 9.1%); format: functional, Ehrlich; settings: route intraperitoneal

SMILES	Activity [1]	further results
O=C(CN1CCN(c2ccccc2)CC1)NNC(=O)c1cc(=O)[nH]c2[nH]c(=O)[nH]c(=O)c12	Active	
O=c1cc(-c2nnc(S)n2-c2ccc(F)cc2)c2c(=O)[nH]c(=O)[nH]c2[nH]1	Active	
COc1ccc(/C=N/NC(=O)c2cc(=O)[nH]c3[nH]c(=O)[nH]c(=O)c23)cc1	Active	
O=C(N/N=C/c1cccc([N+](=O)[O-])c1)c1cc(=O)[nH]c2[nH]c(=O)[nH]c(=O)c12	Active	
O=C(NNC(=S)Nc1ccccc1)c1cc(=O)[nH]c2[nH]c(=O)[nH]c(=O)c12	Active	
COc1ccc(N2CCN(CC(=O)NNC(=O)c3cc(=O)[nH]c4[nH]c(=O)[nH]c(=O)c34)CC2)cc1	Active	
NNC(=O)c1cc(=O)[nH]c2[nH]c(=O)[nH]c(=O)c12	Active	
O=C(CN1CCN(c2ccccc2)CC1)Sc1nnc(-c2cc(=O)[nH]c3[nH]c(=O)[nH]c(=O)c23)n1-c1ccc(F)cc1	Active	
O=c1cc(-c2nnc(S)n2-c2ccccc2)c2c(=O)[nH]c(=O)[nH]c2[nH]1	Active	Activity [2]: 18.6%; Activity [3]: 11.7 g%; Activity [4]: 51.6%; Activity [5]: 11.2 ×10³ /mm3; Activity (Ehrlich): Active
COC(=O)c1cc(=O)[nH]c2[nH]c(=O)[nH]c(=O)c12	Active	
O=C(CCl)NNC(=O)c1cc(=O)[nH]c2[nH]c(=O)[nH]c(=O)c12	Active	
O=c1[nH]cc(F)c(=O)[nH]1 [FLUOROURACIL]		Activity [3]: 10 g%; Activity [6]: 16.7%; Activity [4]: 42.3%; Activity [5]: 13.8 ×10³ /mm3
O=C(NNC(=S)Nc1ccc(F)cc1)c1cc(=O)[nH]c2[nH]c(=O)[nH]c(=O)c12	Active	
O=C(CCl)Sc1nnc(-c2cc(=O)[nH]c3[nH]c(=O)[nH]c(=O)c23)n1-c1ccc(F)cc1	Active	
